The values below come from patent publication US20030061759A1, “Method for expelling harmful insects by volatilization of a chemical” (FUMAKILLA LIMITED, priority 2000, published 2003).

The test system of series [1] is female adult stegomyia mosquitoes (Aedes albopictus). Description: Comparative debugging efficaciousness tests: bloodsucking prevention on rats, liquid type electric mosquito repellent utensil. The class given is in vivo. To be noted: for efficacy of preventing mosquitoes from bloodsucking rats compared with transfluthrin: comparison in words; for Potency Ratio (Etoc 100), of IC50 Value / Potency Ratio (Etoc 100), of IC90 Value: relative to d,d-T80-prallethrin (Etoc) = 100. Here is the method:
First, debugging efficaciousness tests were performed. For the criterion of judgment to compare degrees of efficaciousness, the effect of bloodsucking by mosquitoes of rats was adopted. Based on this, the following efficaciousness tests were carried out.
Comparative Debugging Efficaciousness Tests
Sample chemicals that were used were as follows: d,d-T80-prallethrin, transfluthrin, d1,d-T80-allethrin, d-T80-furamethrin, terallethrin and empenthrin; and pyrethroid technical products (sample chemicals) A, B, C, D, E, F, G and H.
Sample insects that were used were as follows: female adult stegomyia mosquitoes (Aedes albopictus) of Fumakilla (spelled phonetically) series 6th to 9th after emergence.
Sample chemical volatilizing form: A liquid type electric mosquito repellent utensil, a liquid agent (referred to below as “sample liquid”), obtained by diluting each of the sample chemicals with a solvent in a varying concentration, was allowed to volatilize.
Method used for tests: A test was conducted in two 8 straw mat (13.2 m^2) rooms, one as a treatment zone and the other as a non-treatment zone, both in a no-wind state and at a constant room temperature of 32° C.
In the treatment zone, three cages each with a rat confined therein were placed equidistantly spaced apart (about 20 cm) in the center of the test room. The mosquito repellent utensil placed on the floor surface of the center of the test room was preliminarily electrically energized for operation, and to thermally volatilize each of the sample liquids and fumigate the room therewith for a period of 30 minutes, and then about 100 (one hundred) of sample mosquitoes were released into the test room. After two hours following the release of the mosquitoes, all these sample mosquitoes were knocked-down by using a mosquito repellent mat, and the number of the mosquitoes which had bloodsucking was counted to find the proportion of bloodsucking.
In the non-treatment zone, also, after the 2 hours of bloodsucking, the proportion of bloodsucking was found.
A rate of bloodsucking prevention was derived from the proportions of bloodsucking in the treatment and non-treatment rooms as expressed by the following equation:
Rate of bloodsucking prevention =[(Total bloodsucking proportion in the non-treatment zone−Total bloodsucking proportion in the treatment zone)÷Total bloodsucking proportion in the non-treatment zone]×100
Also, on the basis of these amounts of volatilization and rates of bloodsucking prevention, an amount of volatilization at a 50% rate of bloodsucking prevention (IC50 value) and an amount of volatilization at a 90% rate of bloodsucking prevention (IC90 value) are found and shown in Table 1 below.

Series [2] in a line: Comparative vapor pressure tests by gas chromatography. The class given is physicochemical. The procedure: 2. Comparative Vapor Pressure Tests
Next, by using gas chromatography, the various chemicals including sample chemicals A, B and C screened out by the foregoing comparative debugging efficaciousness tests were compared with d,d-T80-prallethrin (Etoc) as regards to their vapor pressures.
The gas chromatography test included as its temperature conditions an initial temperature of 60° C., and a temperature rise of 5° C. per minute up to a maximum temperature of 250° C., which was held for a period of 5 minutes, whereupon the process ended.
The filler used was made up of methyl silicon polymer, which is non-polar.
It should also be noted that as an internal standard substance use was made of sebacic acid-n-butyl and which was added to confirm that there was no deviation in retention time from one test to another.
Retention times for the various chemicals are listed in Table 2 in the order of shorter to longer.

Series [3] concerns female adult common house mosquitoes (Culex pipiens pallens). Description: Example 1: spontaneous volatilization efficaciousness test in 33 m^3 room (knockdown, KT50). The class given is in vivo. To be noted: for potency and retention of potency compared with transfluthrin: comparison in words. The text has this:
Using sample chemicals A, B and C screened out by the preliminary tests, the efficaciousness of each of them when allowed to volatilize spontaneously was compared with that of transfluthrin when allowed to volatilize spontaneously.
Sample Preparations (Chemicals and Their Carriers According to the Present Invention):
A non-woven polypropylene fabric (made by Idemitsu Petroleum Chemicals Co., Ltd., product name RW2100, density 100 grams/m^2) of 50 cm×40 cm was coated with a hexane solution of 100 milliliter containing 1% (W/V) sample chemicals A, B, C and left to dry for 24 hours (effective amount of chemical: 1000 milligrams).
Comparative Preparation (Chemical and its Carrier):
A non-woven polypropylene fabric (made by Idemitsu Petroleum Chemicals Co., Ltd., product name RW2100, density 100 grams/m^2) of 50 cm×40 cm was coated with a hexane solution of 100 milliliter containing 1% (W/V) of transfluthrin and left to dry for 24 hours (effective amount of chemical: 1000 milligrams).
Testing Method: Efficaciousness Tests in an 8 Straw Mat room with a volume of 33 m^3
In the center of the test room with a volume of 33 m^3 (3.65 m×3.65 m×2.5 m high), each chemical carrier as prepared as above was placed as hung on a hook suspended in the center of the room to let the corresponding chemical volatilize spontaneously for a period of 3 hours. Thereafter, a triangular net casing (20 cm×20 cm×16.4 cm high) of 16 mesh nylon net containing 10 (ten) female adult common house mosquitoes (Culex pipiens pallens) was placed as hung in an area at each of the four corners (spaced from the wall surfaces at a distance of 90 cm) at a height of 150 cm from the room floor and was exposed to the chemical atmosphere.
A test was also conducted likewise for the comparative carrier.
After the tests ended, the samples chemicals were let to volatilize spontaneously in the room having a constant temperature of 30° C. The same test was repeated at given intervals and efficaciousness was then examined each time.

Where [4] appears, read: 13.2 m^2 room, 32° C., 30 min pre-fumigation, 2 hours after release, rats.
Setting [5] is: 60° C. initial, 5° C. per minute up to 250° C., non-polar methyl silicon polymer filler.

Molecules are shown by their SMILES. Read-outs that look alike come from different tables or passages of the source.

For `C#CC(OC(=O)C1C(C=C(Cl)Cl)C1(C)C)C(F)=CCC` (centres unmarked) [Sample Chemical B, 1-ethnyl-2-fluoro-2-pentenyl 3-(2,2-dichlorovinyl)-2,2-dimethylcyclopropanecarboxylate], the “IC50 Value (amount of volatilization at a 50% rate of bloodsucking prevention)” value in series [1] (setting [4]) came to 0.0047 mg/h. The “IC90 Value (amount of volatilization at a 90% rate of bloodsucking prevention)” value in series [1] (setting [4]) was 0.0083 mg/h. Besides, the “efficacy of preventing mosquitoes from bloodsucking rats compared with transfluthrin” value in series [1] was “more efficacious than transfluthrin”. The “Potency Ratio (Etoc 100), of IC50 Value” in series [1] turned out to be 172.3. Moreover, in series [1], the “Potency Ratio (Etoc 100), of IC90 Value” was determined as 469.9. Moreover, in series [2], the “Retention Time (gas chromatography, as comparison of vapor pressure)” value (shortened to “Retention Time”) is reported as 26.4 min. Also, the “vapor pressure compared with transfluthrin and d,d-T80-prallethrin” value in series [2] was “lower than transfluthrin, but higher than d,d-T80-prallethrin”. Besides, the “potency and retention of potency compared with transfluthrin” value in series [3] was “higher in potency and also longer in retention time than transfluthrin”. For the same compound, the KT50 in series [3] (elapsed time 0 hr) is on record as 8.64 min; in series [3] (elapsed time 168 hr), 7.53 min; in series [3] (elapsed time 336 hr) it was 7.77 min; in series [3] (elapsed time 504 hr), 7.48 min; in series [3] (elapsed time 672 hr) it was 6.45 min; in series [3] (elapsed time 864 hr), 7.90 min. The KT50 was 8.00 min in series [3] (elapsed time 1056 hr); 8.00 min in series [3] (elapsed time 1200 hr); 8.40 min in series [3] (elapsed time 1344 hr); 8.60 min in series [3] (elapsed time 1536 hr); 9.60 min in series [3] (elapsed time 1680 hr); 10.40 min in series [3] (elapsed time 1848 hr). Also, the KT50 in series [3] (elapsed time 2016 hr) was 9.87 min; in series [3] (elapsed time 2208 hr), 11.70 min; in series [3] (elapsed time 2352 hr) it was 10.80 min; in series [3] (elapsed time 2520 hr), 12.00 min; in series [3] (elapsed time 2688 hr) it was 12.70 min; in series [3] (elapsed time 2856 hr), 13.50 min. The KT50 was 14.90 min in series [3] (elapsed time 3024 hr); 18.60 min in series [3] (elapsed time 3192 hr); 20.70 min in series [3] (elapsed time 3360 hr); 22.90 min in series [3] (elapsed time 3528 hr); 26.80 min in series [3] (elapsed time 3696 hr); 28.00 min in series [3] (elapsed time 3864 hr). The results for the KT50 in series [3] (elapsed time 4032 hr) and in series [3] (elapsed time 4200 hr) were 25.60 min and 32.70 min, respectively.

`Cc1c(F)c(F)c(COC(=O)C2C(C=C(F)Cl)C2(C)C)c(F)c1F` (centres unmarked) [Sample Chemical C, 2,3,5,6-tetrafluoro-4-methylbenzyl 3-(2-chloro-2-fluorovinyl)-2,2-dimethylcyclopropanecarboxylate]: in series [1], the “efficacy of preventing mosquitoes from bloodsucking rats compared with transfluthrin” value is listed as “more efficacious than transfluthrin”. Also, in series [1], the “Potency Ratio (Etoc 100), of IC50 Value” was 130.6. In series [1], the “Potency Ratio (Etoc 100), of IC90 Value” is recorded as 348.2. Further, the “Retention Time” value in series [2] (setting [5]) amounted to 24.5 min. For the same compound, the “vapor pressure compared with transfluthrin and d,d-T80-prallethrin” value in series [2] (from GC retention times) is “lower than transfluthrin, but higher than d,d-T80-prallethrin”. Also, in series [3], the “potency and retention of potency compared with transfluthrin” value was “higher in potency and also longer in retention time than transfluthrin”. Moreover, the KT50 is 5.53 min in series [3] (elapsed time 0 hr); 7.53 min in series [3] (elapsed time 168 hr); 7.55 min in series [3] (elapsed time 336 hr); 6.95 min in series [3] (elapsed time 504 hr); 7.98 min in series [3] (elapsed time 672 hr); 12.60 min in series [3] (elapsed time 864 hr). Further, the KT50 was determined as 10.70 min in series [3] (elapsed time 1056 hr); 11.50 min in series [3] (elapsed time 1200 hr); 12.60 min in series [3] (elapsed time 1344 hr); 15.90 min in series [3] (elapsed time 1536 hr); 20.70 min in series [3] (elapsed time 1680 hr); 25.90 min in series [3] (elapsed time 1848 hr). For the same compound, the KT50 in series [3] (elapsed time 2016 hr) is 27.80 min; in series [3] (elapsed time 2208 hr), 30.60 min.

Consider `CC1(C)[C@H](C=C(Cl)Cl)[C@H]1C(=O)OCc1c(F)c(F)cc(F)c1F` [Transfluthrin, reference compound], for which, in series [1], the “Potency Ratio (Etoc 100), of IC50 Value” turned out to be 19.0. Also, in series [1], the “Potency Ratio (Etoc 100), of IC90 Value” was 29.2. The “Retention Time” value in series [2] (setting [5]) is on record as 23.6 min. Besides, the KT50 in series [3] (elapsed time 0 hr) is 11.10 min; in series [3] (elapsed time 168 hr) it was 8.73 min; in series [3] (elapsed time 336 hr), 9.17 min; in series [3] (elapsed time 504 hr) it was 13.40 min; in series [3] (elapsed time 672 hr) it was 12.10 min; in series [3] (elapsed time 864 hr), 17.20 min. The KT50 worked out at 15.60 min in series [3] (elapsed time 1056 hr); 20.40 min in series [3] (elapsed time 1200 hr); 18.80 min in series [3] (elapsed time 1344 hr); 28.10 min in series [3] (elapsed time 1536 hr); 30.40 min in series [3] (elapsed time 1680 hr).
